Source: patent publication US20160030459A1, “COMPOSITIONS AND METHODS FOR TREATING ALLERGIC CONDITIONS” (IMMUNE DESIGN CORP., priority 2014, published 2016)

Experiments:
[1] = system: PBMCs from Timothy Grass allergic subjects; assay: Cytokine expression of PBMCs from Timothy grass-allergic subjects; assay type: cell-based, human; conditions: Timothy grass allergen and GLA
Text: PBMCs were collected from Timothy Grass allergic and non-allergic subjects and evaluated for T cell cytokine expression after exposure to Timothy grass allergen and GLA. As shown in FIG. 16A-16D, GLA decreased IL-5 and increased IFN-γ, IL-12 and TNF-alpha cytokine response to Timothy grass allergen.

[2] = system: PBMCs from peanut allergic subjects; assay: T cell proliferation and cytokine expression of PBMCs from peanut-allergic subjects; assay type: cell-based, human
Text: PBMCs were collected from peanut allergic and non-allergic subjects (n=4) and evaluated for T cell proliferation and cytokine expression after exposure to peanut extract and GLA. […] In addition, these samples had increased tolerogenic IL-10 expression and […] IL-2 expression indicative of inhibition of T cell proliferation.

[3] = system: Male Balb/c mice sensitized with OVA; assay: Murine model of chronic allergy (OVA-induced airway inflammation and hyperreactivity); assay type: in vivo, mouse
Description: The effect of GLA was evaluated in a chronic model Of OVA-induced airway inflammation and airway hyperreactivity in mice. Male Balb/c mice were sensitized systemically with OVA i.p. over a 2 week period (days 0 & 14). One week later, they were challenged with OVA i.n for 3 consecutive days (days 22 through 24). The animals were then treated once with GLA, in an aqueous formulation, i.n., 1 day post-challenge (day 25) as follows (20 mice per group):
Vehicle-treated; Saline challenged (negative control) Vehicle-treated; OVA challenged (positive control) GLA-treated, single dose (2 ug/animal, i.n.); OVA challenged
The animals were challenged again with OVA i.n. 1 month later (days 55 & 56). AHR as described above in Example 2 was performed 1-2 days post 2nd challenge (the large number of animals required two days to complete the AHR testing). Bronchoalveolar lavage fluid (BALF), thoracic lymph nodes and spleen were collected for FACS & cytokine analysis, and serum was collected for IgE and IgG levels.

[4] = system: dendritic cells (both myeloid and monocyte-derived); assay: Activation and maturation of dendritic cells in vitro; assay type: cell-based, human
Description: (§1) The effect of GLA adjuvant in vitro on various human cell types was evaluated.

[5] = system: Male cynomolgus macaques with a known sensitivity to inhaled Ascaris suum; assay: Primate model of allergic rhinitis, intranasal adjuvant; assay type: in vivo, cynomolgus macaque
Description: GLA adjuvant was evaluated in a nonhuman primate allergic rhinitis model. Male cynomolgus macaques with a known sensitivity to inhaled Ascaris suum were treated with a composition comprising a GLA adjuvant, in an aqueous formulation, via intranasal delivery.
12 animals were assigned randomly to each of vehicle or drug treatment groups. The drug treatment group received 100 μl of a composition containing 5.0 μg GLA adjuvant in an aqueous formulation, intranasally in each nostril, for a total dose of 10 μg. The vehicle group received 100 μl of vehicle in each nostril. The adjuvant or vehicle was administered intranasally once weekly for 4 consecutive weeks. All intranasal dosing was administered using a Penn Century Microsprayer.
The animals were challenged with Ascaris suum into the left nostril concurrent with treatment on days 0 and 14 (at the first and third treatment times).
Animals with severe rhinitis have reduced nasal area or increased nasal congestion as compared to those with improved response and increased nasal area or decreased nasal congestion. Nasal lavage samples were also obtained and total and differential cell count were evaluated.
Briefly, animals were sedated and placed on a ventilator. Blood samples were drawn. A baseline Acoustic Rhinometer measurement (nasal volume and nasal minimum cross-sectional area) was taken in the left nostril followed by instillation of 100 μl saline using a microspayer. After instillation of saline, Acoustic Rhinometry measurements (nasal volume and nasal minimum cross-sectional area) were taken at 2 minutes. Next 100 μl of A. suum (10.0 mg/ml) was instilled into the left nostril using a microsprayer and Acoustic Rhinometry measurements were taken at 1, 2, 3 minutes. Fifteen minutes after A. suum challenge a nasal lavage was performed using 3.0 ml saline injected into the left nostril. After nasal lavage, sedation was reversed.
Total cell count in the nasal lavage samples was determined using the Advia120 hematology analyzer (SOP BW-INM-Resp-SOP-09033). Differential cell counts were performed with cystospins manually on 200 cells using standard morphological criteria.

[6] = system: Male cynomolgus macaques with a known sensitivity to inhaled Ascaris suum; assay: Primate model of allergic rhinitis, intramuscular adjuvant; assay type: in vivo, cynomolgus macaque; conditions: GLA 10 ug intramuscularly, four weekly doses; ascaris antigens intranasally
Description: GLA adjuvant was evaluated in a nonhuman primate allergic rhinitis model. Male cynomolgus macaques with a known sensitivity to inhaled Ascaris suum were treated with a composition comprising a GLA adjuvant, in an oil-based emulsion formulation, with and without allergen, via intramuscular delivery.
Animals (n=12) were treated with four doses of GLA (10 ug) at weekly intervals and were exposed to Ascaris suum antigens at the same time. The evaluation of the response was determined by acoustic rhinometry which measured the nasal area as an indication of congestion Animals with severe rhinitis have reduced nasal area or increased nasal congestion as compared to those with improved response and increased nasal area or decreased nasal congestion.
In this study, animals treated with GLA-SE were compared with animals treated with SE alone. In addition, ascaris antigens in conjunction with GLA were tested. Ascaris antigens were either delivered in combination with GLA via the intramuscular route of administration, or were delivered intranasally separate from the intramuscular GLA treatment.

[7] = system: OVA-sensitized mice; assay: Prophylactic dosing regimens in murine model of allergy; assay type: in vivo, mouse
Description: Three different prophylactic dosing regimens of GLA adjuvant, in an aqueous formulation, were evaluated in the same murine model of allergy described in Example 2. Mice were divided into three treatment arms (20 mice per group), treated as follows starting at 1 week post OVA sensitization, and then challenged with OVA or saline (negative control):
Vehicle-treated at day 14; Saline challenged (negative control) Vehicle-treated at day 14; OVA challenged (positive control) GLA-treated at day 14, with a single dose of GLA (2 ug/animal, i.n.); OVA challenged GLA-treated on days 14, 15, 16, 17, with 4 doses of GLA on consecutive days (each dose 2 ug/animal, i.n.); OVA challenged GLA+Ag-treated on day 14, single dose GLA (2 ug/animal, i.n.)+OVA antigen (20 ug/animal, i.n.); OVA challenged
The animals were challenged with OVA or saline i.n. for 4 consecutive days, 5-7 days post treatment (at days 22, 23, 24 and 25). Airway hyperresponsiveness (AHR) was determined at 1 or 2 days post challenge (the large number of animals required two days to complete the AHR testing). Bronchoalveolar lavage fluid (BALF), thoracic lymph nodes and spleen were collected for FACS & cytokine analysis, and serum was collected for IgE and IgG levels.

[8] = system: various human cell types; assay: Effect of GLA adjuvant in vitro on cytokine expression of human cells; assay type: cell-based
Description: as §1

[9] = system: mice presensitized with intra-gastric RPE; assay: Murine model of peanut allergy, related study with GLA-SE +/- peanut extract; assay type: in vivo, mouse; conditions: with or without antigen, s.c.
Description: In a related study, mice were presensitized with intra-gastric RPE six times at days 0, 1, 2, 7, 14 and 21 (FIG. 15). On days 29, 35, 42 and 49, mice were treated subcutaneously with 2 ug GLA-SE or 2 ug GLA-SE+50 ug RPE. Mice were subsequently challenged by intraperitoneal administration on study day 55 with 12 mg RPE. Anaphylaxis scores and body temperature of mice were then measured. […] Disease scoring was as follows: 1: mild anaphylaxis (scratching, mild snout swelling); 2: Moderate anaphylaxis (mod swelling, mild lethargy) 3: =Severe anaphylaxis (severe swelling, lethargy); 4: Very severe anaphylaxis (moribund, labored breathing); 5: Death.

[10] = Day 1 after peanut extract and GLA exposure
[11] = treatment period (weeks 1-4) and 4 weeks post treatment (weeks 5-8)
[12] = 4 doses on days 14, 15, 16, 17, each 2 ug/animal i.n.
[13] = single dose day 14, 2 ug/animal i.n.

CCCCCCCCCCCCCC(=O)OC(CCCCCCCCCCC)CC(=O)NC1C(OCC2OC(O)C(NC(=O)CC(O)CCCCCCCCCCC)C(OC(=O)CC(O)CCCCCCCCCCC)C2O)OC(CO)C(OP(=O)(O)O)C1OC(=O)CC(CCCCCCCCCCC)OC(=O)CCCCCCCCCCCCC (centres unmarked) [GLA, glucopyranosyl lipid A]
IL-12 cytokine response to Timothy grass allergen ([1]; 2 day culture): increases
TNF-alpha cytokine response to Timothy grass allergen ([1]; 2 day culture): increases
IFN-γ cytokine response to Timothy grass allergen ([1]; 6 day culture): increases
IL-5 cytokine response to Timothy grass allergen ([1]; 6 day culture): decreases
IL12p70 (IL-12) expression [2, 10]: increased
IL-2 expression [2, 10]: increased
interferon gamma expression [2, 10]: increased
tolerogenic IL-10 expression [2, 10]: increased
CD4 T cell proliferation ([2]; Day 6 after exposure to peanut extract and GLA): dose-dependent antigen specific inhibition
leukocyte cell count in BALF (including eosinophil, macrophage or CD3+ T cell counts) ([3]; single dose 2 ug/animal i.n.): did not alter
time after GLA dosing for which effects could be observed ([3]; single dose 2 ug/animal i.n.): at least 1 month
airway hyperresponsiveness ([3]; single dose 2 ug/animal i.n. day 25, 1 month before allergen challenge): attenuate
IL-4 expression in the airway after allergen challenge ([3]; single dose 2 ug/animal i.n. one month before allergen challenge): attenuate
activation and maturation of dendritic cells [4]: induced activation and maturation
percentage of baseline nasal cross sectional area ([5]; 10 μg intranasal once weekly for 4 weeks, compared with vehicle): increased
antigen-induced nasal congestion ([5]; aqueous formulation, 10 μg intranasal once weekly for 4 weeks, A. suum challenge): reduced
differential cell count (lymphocyte, monocyte, granuolocyte, neutrophil, eosinophil or basophil cell numbers) [5, 11]: not altered
platelet counts [5, 11]: did not alter
red blood cell counts [5, 11]: did not alter
white blood cell counts [5, 11]: did not alter
nasal rhinitis scores [6]: did not improve
CD3+ T cells in BALF [7, 12]: decreased
eosinophil in BALF [7, 12]: decreased
total leukocytes in BALF [7, 12]: decreased
cellularity systemically, in spleen or lymph nodes ([7]; i.n. GLA treatment): did not alter
numbers of CD3+ T cells in BALF [7, 13]: did not alter
numbers of eosinophils in BALF [7, 13]: did not alter
numbers of macrophages in BALF [7, 13]: did not alter
GM-CSF expression [8]: induced expression
IL-1β expression [8]: induced expression
IL-6 expression [8]: induced expression
IL-8 expression [8]: induced expression
IL-10 expression [8]: induced expression
TNF-α expression [8]: induced expression
peanut allergy in a mouse model [9]: attenuates
